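Results reflect a 48-hour exposure of cells in 96-well plates to compound at five concentrations. TGI: total growth inhibition.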

Holding throughout (assay): growth of human tumour cells (NCI), 48 h
The test system of test [1] is 786-0 renal.
Test [2] relates to A549 NSCLC.
For test [3], the system named is EKVX NSCLC.
Test [4] has as its system HL-60(TB) leukemia.
Test [5] has as its system HT29 colon.
The test system of test [6] is LOX IMVI melanoma.
Test [7] concerns MCF7 breast.
In test [8] the test system is MDA-MB-435.
The test system of test [9] is MDA-N.
Test [10] relates to MOLT-4 leukemia.
The subject of test [11] is OVCAR-3 ovarian.
Test [12] concerns OVCAR-8 ovarian.
Test [13] has as its system SK-OV-3 ovarian.
Test [14] relates to SNB-75 CNS.
Test [15] concerns TK-10 renal.
Test [16] relates to UACC-257 melanoma.
Test [17] concerns UO-31 renal.
Test [18] deals with NCI-H460 lung.

For `COc1ccc(C(=O)/C=C/c2cccnc2)cc1OC`, the TGI was 14.1 µM in test [1]; 27.7 µM in test [2]; 28.7 µM in test [3]; 6.01 µM in [4]; 15.2 µM in [5]; 3.81 µM in test [6]. The TGI in test [7] came to 13 µM; in test [8], 30.1 µM; in test [9], 25.6 µM; in test [10] it was 14.1 µM; in test [11], 11 µM; in [12], 18.6 µM. Moreover, the TGI is 28.6 µM in [13]; 24.4 µM in [14]; 29.1 µM in test [15]; 29 µM in [16]; 26.3 µM in test [17].
Regarding `Cc1n[nH]c(=O)n1/N=C\CC/C=N\n1c(C)n[nH]c1=O`, the TGI in test [1], in test [2], in test [3], in [4], in test [5] and in test [6] was above 100 µM throughout. Moreover, the TGI in [7], in test [8], in test [9], in [10], in [11] and in test [12] was above 100 µM throughout. Also, the TGI in [13], in [14], in test [15], in test [16] and in test [17] was above 100 µM each time.
As for `C=C1C(=O)O[C@H]2[C@H]3O[C@@H](C[C@@H]12)[C@@]1(C)CC[C@H](O1)C(C)=CCC[C@H]3C`, the TGI stood at 2.67 µM in test [1]; 6.96 µM in [2]; 3.32 µM in test [3]; 1.03 µM in [4]; 3.33 µM in test [5]; 2.89 µM in test [6]. In addition, the TGI in [7] was determined as 3.63 µM; in test [8], 2.92 µM; in [9], 3 µM; in [18], 7.26 µM; in test [11], 2.7 µM; in [12], 3.1 µM. The TGI in [13] is 16.2 µM; in [14] it was 5.65 µM; in test [15], 2.93 µM; in [16] it was 3.59 µM; in test [17] it was 2.77 µM.
As to `NNCCc1n[nH]c(=O)n1N`, the TGI in [1], in [2], in test [3], in [4], in test [5] and in [6] was above 100 µM throughout. For the same compound, the TGI in [7], in [8], in test [9], in [10], in test [18] and in test [11] was above 100 µM in each case. Moreover, the TGI in test [12], in [13], in test [14], in test [16] and in test [17] was above 100 µM in each case.
On to `O=C1NC(=O)C(COCc2ccccc2)C2=C1SCCC2` (stereo not given), for which the TGI in [1], in [2], in test [3], in test [4], in test [5] and in test [6] was above 100 µM in each case. Moreover, the TGI in [7], in test [8], in test [9], in test [10], in test [18] and in [11] was above 100 µM throughout. For the same compound, the TGI in test [12], in test [14], in test [16] and in [17] was above 100 µM throughout.
As to `c1ccc2cc(CNCCOCCOCCNCc3ccc4ccccc4c3)ccc2c1`, the TGI was found to be 2.97 µM in [1]; 3.46 µM in test [2]; 6.13 µM in test [3]; 4.07 µM in test [4]; 2.76 µM in test [5]; 3.06 µM in [6]. Moreover, the TGI in test [7] worked out at 3.41 µM; in test [8], 3.81 µM; in [9], 3.23 µM; in test [10], 4.49 µM; in [18] it was 3.24 µM; in test [11], 3.7 µM. Besides, the TGI in test [12] was 3.77 µM; in test [13], 8.62 µM; in [14] it was 4.12 µM; in test [15], 3.04 µM; in [16] it was 2.96 µM.
Regarding `O=C(NCCc1ccccc1)c1c(O)c2ccccc2[nH]c1=O`, the TGI in test [1], in [2], in test [3], in [4], in [5] and in [6] was above 100 µM throughout. The TGI in test [7], in test [8], in [9], in [10], in test [18] and in test [11] was above 100 µM each time. In addition, the TGI in test [12], in test [14], in test [15], in test [16] and in [17] was above 100 µM in each case.
Turning to `CC(=O)O[C@H]1CCn2c3c(c(C)c21)C(=O)C(N1CC1)=C(C)C3=O`, the TGI in [1] was above 10 µM; in test [2], 7.83 µM; in test [3] it was above 10 µM; in test [4], above 10 µM; in test [5] it was above 10 µM; in test [6], above 10 µM. Moreover, the TGI in [7], in test [8], in test [9], in test [10], in test [18] and in test [11] was above 10 µM each time. The TGI in test [12], in test [13], in test [14], in [15] and in test [16] was above 10 µM in each case.
